From patent US6914045B2, “Glycopeptide antibiotics” (Wyeth Holdings Corporation, priority 2001, dated 2005)
In brackets after ≈: the same amount, converted by molar mass.

Tests used:
[1] = test system: Staphylococcus sp.; test: in vitro antibacterial evaluation, MIC by broth dilution; format: cell-based; settings: broth dilution, 18 hours at 35° C.; for MIC Staphylococcus haemolyticus (GC 4546): strain GC 4546
Summary of the method: (§1)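 Broth dilution per NCCLS M7-A2 in Mueller-Hinton II medium, inoculum 5×10^5 CFU/mL, antibiotic range 64-0.06 μg/mL. MIC taken as lowest concentration inhibiting growth; Gram-positive panel includes recent clinical isolates resistant to methicillin, penicillin and/or vancomycin.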

[2] = test system: Streptococcus sp.; test: as above; format: cell-based; settings: broth dilution, 18 hours at 35° C.
Summary of the method: as §1

[3] = test system: Enterococcus sp.; test: as above; format: cell-based; settings: broth dilution, 18 hours at 35° C.
Summary of the method: as §1

[4] = anatomic pathology (histopathology of heart and kidney) in mice; format: in vivo; settings: CD-1 mice, 20 mg/kg intravenously daily for 9 days, necropsy day 10, microscopic histopathology
Method: Samples of tissues from necropsied mice were formalin-fixed, paraffin-embedded, sectioned, stained with hematoxylin and eosin, and examined microscopically. Histopathologic findings were recorded. These findings were subjectively graded on a scale corresponding to slight, mild, moderate, marked and severe as compared to untreated controls.

[5] = test system: Escherichia coli; test: in vitro antibacterial evaluation, MIC by broth dilution; format: cell-based; settings: 18 hours at 35° C.
Summary of the method: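 Broth dilution MIC per NCCLS M7-A2 in Mueller-Hinton II medium, inoculum 5×10^5 CFU/mL, antibiotic range 64-0.06 μg/mL. MIC taken as lowest concentration inhibiting growth.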

CN=C1N(C)CC(C(O)C2NC(=O)C(Cc3ccc(OC4OC(CO)C(OC5OC6COC7(OC6C(O)C5O)C5CC6CC(C5)CC7C6)C(O)C4O)cc3)NC(=O)C(C(C)c3ccccc3)NC(=O)CNC(=O)C(CO)NC(=O)C(C(O)C3CN(C)C(=NC)N3C3OC(CO)C(O)C(O)C3O)NC2=O)N1C (stereo not drawn) [Example 81, Cyclo[glycyl-β-methylphenylalanyl-O-[4-O-[4,6-O-(2-adamantylidene)hexopyranosyl]hexopyranosyl]tyrosyl-3-[1,3-dimethyl-2-(methylimino)imidazolidin-4-yl]seryl-3-[3-hexopyranosyl-1-methyl-2-(methylimino)imidazolidin-4-yl]serylseryl]]
MIC Staphylococcus haemolyticus (GC 4546) [1]: >128 µg/mL
MIC Streptococcus agalactiae (GC 4564) [2]: 128 µg/mL (≈ 85.5 µM)
MIC Streptococcus pneumoniae (ATCC 6301) [2]: >128 µg/mL
MIC Streptococcus pneumoniae (GC 1894) [2]: 128 µg/mL (≈ 85.5 µM)
MIC Streptococcus pneumoniae (GC 4565) [2]: >128 µg/mL
MIC Streptococcus pyogenes (GC 4563) [2]: >128 µg/mL
MIC Enterococcus avium (GC 4558) [3]: 128 µg/mL (≈ 85.5 µM)
MIC Enterococcus faecalis (ATCC 29212) [3]: >128 µg/mL
MIC Enterococcus faecalis (GC 2242) [3]: >128 µg/mL
MIC Enterococcus faecalis (GC 2691) [3]: >128 µg/mL
MIC Enterococcus faecalis (GC 3059) [3]: >128 µg/mL
MIC Enterococcus faecalis (GC 4552) [3]: >128 µg/mL
MIC Enterococcus faecalis (GC 4553) [3]: 128 µg/mL (≈ 85.5 µM)
MIC Enterococcus faecalis (GC 4554) [3]: >128 µg/mL
MIC Enterococcus faecalis (GC 6189) [3]: >128 µg/mL
MIC Enterococcus faecium (GC 2243) [3]: >128 µg/mL
MIC Enterococcus faecium (GC 4556) [3]: >128 µg/mL
MIC Enterococcus faecium (GC 4557) [3]: 128 µg/mL (≈ 85.5 µM)
Anatomical Pathology (Day 10), Heart [4]: 0
Anatomical Pathology (Day 10), Kidney [4]: 0
MIC Escherichia coli (ATCC 25922) [5]: >128 µg/mL
MIC Escherichia coli (GC 4559) [5]: >128 µg/mL
MIC Escherichia coli (GC 4560) [5]: 128 µg/mL (≈ 85.5 µM)

CC(c1ccccc1)C1NC(=O)CNC(=O)C(CO)NC(=O)C(C(O)C2CN(Cc3ccc(-c4ccccc4)cc3)C(=N)N2C2OC(CO)C(O)C(O)C2O)NC(=O)C(C(O)C2CNC(=N)N2)NC(=O)C(Cc2ccc(OC3OC(CO)C(OC4OC(CO)C(O)C(O)C4O)C(O)C3O)cc2)NC1=O (stereo not shown) [Example 66a]
MIC Staphylococcus aureus (ATCC 29213) ([1]; strain ATCC 29213): >128 µg/mL
MIC Staphylococcus aureus (GC 1131) ([1]; strain GC 1131): >128 µg/mL
MIC Staphylococcus aureus (GC 3051) ([1]; strain GC 3051): >128 µg/mL
MIC Staphylococcus aureus (GC 3053) ([1]; strain GC 3053): >128 µg/mL
MIC Staphylococcus aureus (GC 4541) ([1]; strain GC 4541): >128 µg/mL
MIC Staphylococcus aureus (GC 4542) ([1]; strain GC 4542): >128 µg/mL
MIC Staphylococcus aureus-SMITH (GC 4543) ([1]; strain GC 4543): >128 µg/mL
MIC Staphylococcus aureus (GC 4544) ([1]; strain GC 4544): >128 µg/mL
MIC Staphylococcus aureus (GC 4545) ([1]; strain GC 4545): >128 µg/mL
MIC Staphylococcus haemolyticus (GC 4546) [1]: >128 µg/mL
MIC Coagulase Negative Staphylococcus (GC 4547) ([1]; strain GC 4547): >128 µg/mL
MIC Coagulase Negative Staphylococcus (GC 4548) ([1]; strain GC 4548): >128 µg/mL
MIC Coagulase Negative Staphylococcus (GC 4549) ([1]; strain GC 4549): >128 µg/mL
MIC Coagulase Negative Staphylococcus (GC 4551) ([1]; strain GC 4551): >128 µg/mL
MIC Streptococcus agalactiae (GC 4564) [2]: >128 µg/mL
MIC Streptococcus pneumoniae (ATCC 6301) [2]: >128 µg/mL
MIC Streptococcus pneumoniae (GC 1894) [2]: >128 µg/mL
MIC Streptococcus pneumoniae (GC 4565) [2]: >128 µg/mL
MIC Streptococcus pyogenes (GC 4563) [2]: >128 µg/mL
MIC Streptococcus pneumoniae (ATCC 6301) ([2]; strain ATCC 6301): >128 µg/mL
MIC Streptococcus pneumoniae (GC 1894) ([2]; strain GC 1894): >128 µg/mL
MIC Streptococcus pyogenes (GC 4563) ([2]; strain GC 4563): >128 µg/mL
MIC Streptococcus agalactiae (GC 4564) ([2]; strain GC 4564): >128 µg/mL
MIC Streptococcus pneumoniae (GC 4565) ([2]; strain GC 4565): >128 µg/mL
MIC Enterococcus avium (GC 4558) ([3]; Enterococcus avium (GC 4558)): 128 µg/mL (≈ 87.6 µM)
MIC Enterococcus faecalis (ATCC 29212) ([3]; Enterococcus faecalis (ATCC 29212)): >128 µg/mL
MIC Enterococcus faecalis (GC 4552) ([3]; Enterococcus faecalis (GC 4552)): >128 µg/mL
MIC Enterococcus faecalis (GC 4553) ([3]; Enterococcus faecalis (GC 4553)): >128 µg/mL
MIC Enterococcus faecalis (GC 4554) ([3]; Enterococcus faecalis (GC 4554)): >128 µg/mL
MIC Enterococcus faecalis (GC 6189) ([3]; Enterococcus faecalis (GC 6189)): >128 µg/mL
MIC Enterococcus faecium (GC 2243) ([3]; Enterococcus faecium (GC 2243)): >128 µg/mL
MIC Enterococcus faecium (GC 4556) ([3]; Enterococcus faecium (GC 4556)): >128 µg/mL
MIC Enterococcus faecium (GC 4557) ([3]; Enterococcus faecium (GC 4557)): >128 µg/mL
MIC Enterococcus avium (GC 4558) [3]: 128 µg/mL (≈ 87.6 µM)
MIC Enterococcus faecalis (ATCC 29212) [3]: >128 µg/mL
MIC Enterococcus faecalis (GC 2242) [3]: >128 µg/mL
MIC Enterococcus faecalis (GC 2691) [3]: >128 µg/mL
MIC Enterococcus faecalis (GC 3059) [3]: >128 µg/mL
MIC Enterococcus faecalis (GC 4552) [3]: >128 µg/mL
MIC Enterococcus faecalis (GC 4553) [3]: >128 µg/mL
MIC Enterococcus faecalis (GC 4554) [3]: >128 µg/mL
MIC Enterococcus faecalis (GC 6189) [3]: >128 µg/mL
MIC Enterococcus faecium (GC 2243) [3]: >128 µg/mL
MIC Enterococcus faecium (GC 4556) [3]: >128 µg/mL
MIC Enterococcus faecium (GC 4557) [3]: >128 µg/mL
MIC Enterococcus faecalis (GC 2242) ([3]; strain GC 2242): >128 µg/mL
MIC Enterococcus faecalis (GC 2691) ([3]; strain GC 2691): >128 µg/mL
MIC Enterococcus faecalis (GC 3059) ([3]; strain GC 3059): >128 µg/mL
Anatomical Pathology (Day 10), Heart [4]: 0
Anatomical Pathology (Day 10), Kidney [4]: ++
MIC Escherichia coli (ATCC 25922) [5]: >128 µg/mL
MIC Escherichia coli (GC 4559) [5]: >128 µg/mL
MIC Escherichia coli (GC 4560) [5]: 8 µg/mL (≈ 5.47 µM)
